Source: US20240385180A1, “PRODUCTION OF ORGANOID DERIVED FROM CTC OF SMALL CELL LUNG CANCER PATIENT, AND IGF1R INHIBITOR AS A MOLECULAR TARGET DRUG FOR SMALL CELL LUNG CANCER” (KEIO UNIVERSITY, priority 2021, published 2024)

Columns and labels:
[1] = tested on: IGF-dependent small cell lung cancer organoids; experiment: Effect of IGF1R inhibitor in vitro: number of living cells (CellTiter-Glo); format: cell-based, human; conditions: 0.1, 1, 10, 100 μM in complete medium, fifth day after adding the drug, vs DMSO
Description: An IGF1R inhibitor was added to the medium of small cell lung cancer organoids, and the effect on the growth of small cell lung cancer organoids was investigated. As small cell lung cancer organoids, a plurality of types of each of IGF-dependent small cell lung cancer organoid lines and IGF-independent small cell lung cancer organoid lines were used. Furthermore, linsitinib (CAS number: 867160-71-2) was used as an IGF1R inhibitor. In addition, the number of living cells was measured using a commercially available kit (product name “CellTiter-Glo”, Promega). A small cell lung cancer organoid was dissociated into a single cell using TrypLE Express (Thermo Fisher Scientific), and further filtered using a 20 μm cell strainer. Then, 3×10^3 per well cells were seeded and cultured in complete medium added with 0.1, 1, 10, and 100 μM lincitinib. In addition, as a control, a group in which dimethyl sulfoxide (DMSO), which was used as a solvent for linsitinib, was added was also prepared. The number of living cells was measured on the fifth day after adding the drug.

[2] = tested on: IGF-dependent small cell lung cancer organoids; experiment: In vitro apoptosis assay (Annexin V-FITC / propidium iodide flow cytometry); format: cell-based, human; conditions: 1 μM, cultured for 5 days, vs DMSO
Description: An IGF1R inhibitor was added to the medium of small cell lung cancer organoids, and the occurrence of apoptosis was measured. First, a small cell lung cancer organoid was dissociated into a single cell using TrypLE Express (Thermo Fisher Scientific), further, filtered using a 20 μm cell strainer. Next, add 5×10^4 cells per well were seeded to a […], and cultured for 5 days in the presence of 1 μM IGF1R inhibitor or 1 μM FGFR inhibitor. DMSO was added to the control cell culture medium. Subsequently, using a commercially available kit (product name “TACS Annexin V-FITC Apoptosis Detection Kit”, R&D System), the induction of apoptosis was measured by flow cytometry using the BD FACSCalibur system (Becton Dickinson). FIG. 10 is a graph showing the results of the flow cytometry. In FIG. 10, the propidium iodide-positive and Annexin V-positive cells are the cells in which apoptosis was induced.

[3] = tested on: KOR317 line (YAP1 positive subtype, IGF-dependent small cell lung cancer organoid); experiment: Effect of IGF1R inhibitor in vivo: tumor volume in mice transplanted with KOR317 line; conditions: KOR317 (YAP1-positive, IGF-dependent) subcutaneous in NOD/Shi-scid, IL-2Rγ mice; 50 mg/kg once a day, 5 days a week, 5 weeks; vs vehicle
Description: (§1) Specifically, first, small cell lung cancer organoids (KOR317 line and KOR457 line) were peeled off from Matrigel (registered trademark) using cell recovery solution (BD Bioscience). The peeled small cell lung cancer organoids were kept on ice for 30 minutes while being loosened by pipetting every 10 minutes. Next, approximately 1×10^5 of respective small cell lung cancer organoids was resuspended in about 50 μL of Matrigel, and the respective suspensions was subcutaneously injected into mice. As the mice, 6-10 weeks old NOD/Shi-scid, IL-2Rγ mice were used. Once the tumor diameter (long×short×height/2) was approximately 100-150 mm^3, the subjects were randomly divided into a drug administration group and a placebo treatment group. Each group was set as n≥3. Subsequently, linsitinib (50 mg/kg) was administered to the drug administration group, and vehicle was administered to the placebo treatment group once a day, 5 days a week, for a total of 5 weeks. Linsitinib was dissolved in 30% PEG400-0.5% tween80-5% propylene glycol (vehicle) and administered. Tumor diameter (major axis×short axis×height/2) was measured once a week.

[4] = tested on: KOR457 line (ASCL1 positive subtype, IGF-independent small cell lung cancer organoid); experiment: Effect of IGF1R inhibitor in vivo: tumor volume in mice transplanted with KOR457 line; conditions: KOR457 (ASCL1-positive, IGF-independent) subcutaneous in NOD/Shi-scid, IL-2Rγ mice; 50 mg/kg once a day, 5 days a week, 5 weeks; vs vehicle
Description: as §1

C[C@]1(O)C[C@@H](c2nc(-c3ccc4ccc(-c5ccccc5)nc4c3)c3c(N)nccn32)C1 [IGF1R inhibitor, linsitinib]
growth of organoids (number of living cells) [1]: inhibits the growth | induction of apoptosis (propidium iodide-positive and Annexin V-positive cells) [2]: induces apoptosis | tumor growth (tumor volume over time) [3]: tumor growth was suppressed | tumor growth (tumor volume over time) [4]: no effect
